Experimental data from patent publication US20220402862A1 (Intellia Therapeutics, Inc., priority 2019, published 2022).

Legend:
[1] = pKa measurement of unformulated amine lipid (fluorescence, method of Jayaraman et al.); type: physicochemical; conditions: 100 μM in 0.1 M phosphate buffer, pH 2.0-12.0
Experimental: The pKa of each amine lipid was determined according to the method in Jayaraman, et al. (Angewandte Chemie, 2012) with the following adaptations. […] Lipid was diluted to 100 μM in 0.1 M phosphate buffer (Boston Bioproducts) where the pH ranged from 2.0-12.0. Fluorescence intensity was measured using excitation and emission wavelengths of 321 nm and 448 nm.

[2] = RNA encapsulation efficiency of LNPs (Ribogreen fluorescence assay); type: physicochemical; conditions: LNP, sg:mRNA 1:1, N/P about 6, amine lipid/DSPC/cholesterol/PEG-2k-DMG 50/9/38/3; Table 2, Experiments 2-20
Outline: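 LNPs were diluted in 1× TE with 0.2% Triton X-100 (total RNA) or without it (free RNA), stained with RiboGreen for ~10 min at room temperature in the dark, and read at Ex 488/Em 525 nm against standard curves of the starting RNA. Encapsulation efficiency = (Total − Free)/Total.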

[3] = Dynamic light scattering of LNPs: Z-average diameter, number average diameter, PDI; type: physicochemical; conditions: LNP, sg:mRNA 1:1, N/P about 6, 50/9/38/3; Table 2, Experiments 2-20
Outline: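 LNP samples were diluted in PBS and measured by DLS to give intensity-based Z-average diameter, number average diameter and polydispersity index. PDI describes size spread around the mean, with zero meaning a uniform population.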

Transthyretin (TTR) = test: Serum TTR ELISA in mice after LNP dosing; type: in vivo, CD-1 female mice; conditions: guide G282 experiments; for Serum TTR % TSS: mouse serum TTR relative to TSS control; for Serum TTR: mouse serum, ELISA
Experimental: CD-1 female mice ranging from 6-10 weeks of age were used in each study. Animals were weighed and grouped according to body weight for preparing dosing solutions based on group average weight. LNPs were dosed via the lateral tail vein in a volume of 0.2 mL per animal (approximately 10 mL per kilogram body weight). The animals were periodically observed for adverse effects for at least 24 hours post dose. For studies measuring in vivo editing in liver, CD-1 female mice were dosed at 0.1 mg/kg unless otherwise noted. Animals were euthanized at 6 or 7 days by ex sanguination via cardiac puncture under isoflurane anesthesia. Liver tissue was collected from each animal for DNA extraction and analysis. Blood was collected into serum separator tubes or into tubes containing buffered sodium citrate for plasma as described herein. Cohorts of mice were measured for editing by Next-Generation Sequencing (NGS).
Blood was collected and the serum was isolated as indicated. The total mouse TTR serum levels were determined using a Mouse Prealbumin (Transthyretin) ELISA Kit (Aviva Systems Biology, Cat. OKIA00111). Briefly, sera were serial diluted with kit sample diluent to a final dilution of 10,000-fold for 0.1 mg/kg dose and final dilutions of 10,000-fold and of 2,500-fold for 0.3 mg/kg. This diluted sample was then added to the ELISA plates and the assay was carried out according to the manufacturer's directions.

Row | pKa [1] | Encapsulation (%) [2] | Number mean (nm) [3] | PDI [3] | Z-avg (nm) [3] | Compound | Serum TTR % TSS (Transthyretin (TTR)) | Serum TTR (Transthyretin (TTR))
1 | 6.64 | 97% | 94.5 nm | 0.008 | 110.6 nm | CCCCCCCCCCOC(=O)CCCCCCCC(=O)OCC(COC(=O)CCC(OCCCCCCCC)OCCCCCCCC)COC(=O)NCCN(CC)CC (stereo not shown) [Compound 73, 1-(3-((4,4-bis(octyloxy)butanoyl)oxy)-2-((((2-(diethylamino)ethyl)carbamoyl)oxy)methyl)propyl) 9-decyl nonanedioate] | 60% | 550 µg/mL
2 | 6.13 | 99% | 83.64 nm | 0.019 | 99.24 nm | CCCCCCCCCCOC(=O)CCCCCCCC(=O)OCC(COC(=O)CCC(OCCCCCCCCC)OCCCCCCCCC)COC(=O)OCCCN(CC)CC (stereo not shown) [Compound 79, 1-(3-((4,4-bis(nonyloxy)butanoyl)oxy)-2-((((3-(diethylamino)propoxy)carbonyl)oxy)methyl)propyl) 9-decyl nonanedioate] | 39% | 351 µg/mL
3 | 7.3 | 98% | 68 nm | 0.010 | 83 nm | CCCCC/C=C\C/C=C\CCCCCCCC(=O)OCC(COC(=O)CCCCN(CC)CC)COC(=O)CCC(OCCCCCCCC)OCCCCCCCC (stereo not shown) [Compound 28, 3-((4,4-bis(octyloxy)butanoyl)oxy)-2-(((5-(diethylamino)pentanoyl)oxy)methyl)propyl (9Z,12Z)-octadeca-9,12-dienoate] | 73% | 661 µg/mL
4 | 6.58 | 98% | 59.48 nm | 0.024 | 73.71 nm | CCCCC/C=C\C/C=C\CCCCCCCC(=O)OCC(COC(=O)CCC(OCCCCCCCC)OCCCCCCCC)COC(=O)NC1CCCN(CC)C1 (stereo not shown) [Compound 36, 3-((4,4-bis(octyloxy)butanoyl)oxy)-2-((((1-ethylpiperidin-3-yl)carbamoyl)oxy)methyl)propyl (9Z,12Z)-octadeca-9,12-dienoate] | 99% | 795 µg/mL
5 | 5.9 | 97% | 40.95 nm | 0.086 | 58.93 nm | CCCCC/C=C\C/C=C\CCCCCCCC(=O)OCC(COC(=O)CCC(OCCCCCCCC)OCCCCCCCC)COC(=O)N1CCN(C)CC1 (stereo not shown) [Compound 47, 3-((4,4-bis(octyloxy)butanoyl)oxy)-2-((((9Z,12Z)-octadeca-9,12-dienoyl)oxy)methyl)propyl 4-methylpiperazine-1-carboxylate] | 96% | 1075 µg/mL
6 | 6.16 | 99% | 74.41 nm | 0.009 | 89.55 nm | CCCCCC/C=C\COC(=O)CCCCCCCC(=O)OCC(COC(=O)CCC(OCCCCCCCCC)OCCCCCCCCC)COC(=O)OCCCN(CC)CC (stereo not shown) [Compound 83, (Z)-1-(3-((4,4-bis(nonyloxy)butanoyl)oxy)-2-((((3-(diethylamino)propoxy)carbonyl)oxy)methyl)propyl) 9-(non-2-en-1-yl) nonanedioate] | 54% | 488 µg/mL
7 | 7.3 | 98% | 69.23 nm | 0.007 | 82.93 nm | CCCCC/C=C\C/C=C\CCCCCCCC(=O)OCC(COC(=O)CCC(OCCCCCCCC)OCCCCCCCC)COC(=O)NC(C)CN(C)C (stereo not shown) [Compound 45, 3-((4,4-bis(octyloxy)butanoyl)oxy)-2-((((1-(dimethylamino)propan-2-yl)carbamoyl)oxy)methyl)propyl (9Z,12Z)-octadeca-9,12-dienoate] | 98% | 1096 µg/mL

The next lines start with the molecule.

Row | Compound | pKa [1] | Encapsulation (%) [2] | Number mean (nm) [3] | PDI [3] | Z-avg (nm) [3] | Serum TTR % TSS (Transthyretin (TTR)) | Serum TTR (Transthyretin (TTR))
8 | CCCCCCCCCCOC(=O)CCCCCCCC(=O)OCC(COC(=O)CCCCCC(=O)OC(CCCCCCCC)CCCCCCCC)COC(=O)OCCCN(CC)CC (stereo not shown) [Compound 76, 1-decyl 9-(3-(((3-(diethylamino)propoxy)carbonyl)oxy)-2-(((7-(heptadecan-9-yloxy)-7-oxoheptanoyl)oxy)methyl)propyl) nonanedioate] | 6.17 | 99% | 80.2 nm | 0.097 | 111.8 nm | 81% | 735 µg/mL
9 | CCCCCCCCCCOC(=O)CCCCCCCC(=O)OCC(COC(=O)CCCC(=O)OC(CCCCCCCC)CCCCCCCC)COC(=O)CCCN(C)C (stereo not shown) [Compound 89, 1-decyl 9-(3-((4-(dimethylamino)butanoyl)oxy)-2-(((5-(heptadecan-9-yloxy)-5-oxopentanoyl)oxy)methyl)propyl) nonanedioate] | 6.79 | 95% | 89.4 nm | 0.008 | 107.3 nm | 102% | 774 µg/mL
10 | CCCCCCCCCCOC(=O)CCCCCCCC(=O)OCC(COC(=O)CCCC(=O)OC(CCCCCCCC)CCCCCCCC)COC(=O)OCCCN(CC)CC (stereo not shown) [Compound 77, 1-decyl 9-(3-(((3-(diethylamino)propoxy)carbonyl)oxy)-2-(((5-(heptadecan-9-yloxy)-5-oxopentanoyl)oxy)methyl)propyl) nonanedioate] | 6.16 | 99% | 85.4 nm | 0.006 | 101.8 nm | 53% | 478 µg/mL
11 | CCCCCCCCCCOC(=O)CCCCCCCC(=O)OCC(COC(=O)CCCCCC(=O)OC(CCCCCCCC)CCCCCCCC)COC(=O)OCCC1CCCN1C (stereo not shown) [Compound 80, 1-decyl 9-(3-((7-(heptadecan-9-yloxy)-7-oxoheptanoyl)oxy)-2-((((2-(1-methylpyrrolidin-2-yl)ethoxy)carbonyl)oxy)methyl)propyl) nonanedioate] | 6.21 | 98% | 87.3 nm | 0.016 | 105.8 nm | 116% | 873 µg/mL
12 | CCCCCCCCCCOC(=O)CCCCCCCC(=O)OCC(COC(=O)CCCC(=O)OC(CCCCCCCC)CCCCCCCC)COC(=O)OCCC1CCCN1C (stereo not shown) [Compound 87, 1-decyl 9-(3-((5-(heptadecan-9-yloxy)-5-oxopentanoyl)oxy)-2-((((2-(1-methylpyrrolidin-2-yl)ethoxy)carbonyl)oxy)methyl)propyl) nonanedioate] | 6.52 | 98% | 81.57 nm | 0.006 | 98.47 nm | 68% | 511 µg/mL
13 | CCCCCC/C=C\COC(=O)CCCCCCCC(=O)OCC(COC(=O)CCCCCC(=O)OC(CCCCCCCC)CCCCCCCC)COC(=O)OCCCN(CC)CC (stereo not shown) [Compound 85, (Z)-1-(3-(((3-(diethylamino)propoxy)carbonyl)oxy)-2-(((7-(heptadecan-9-yloxy)-7-oxoheptanoyl)oxy)methyl)propyl) 9-(non-2-en-1-yl) nonanedioate] | 6.16 | 99% | 81.21 nm | 0.006 | 97.86 nm | 84% | 762 µg/mL
